In PubChem BioAssay AID1922 (Vanderbilt High Throughput Screening Facility, 2009) one finds inhibition data, which are given here for two compounds.

The target of the assay is ATP-sensitive inward rectifier potassium channel 1 (Homo sapiens) (UniProt P48048). The assay is described as follows: PubChem AID 1922. As to conditions: HEK-293 ROMK whole-cell patch clamp, % block, stronger effect = higher value. A general note: Patch clamp records ionic current or voltage across a cell membrane.
Chain of ATP-sensitive inward rectifier potassium channel 1 (Homo sapiens) (P48048 whole entry, looked up): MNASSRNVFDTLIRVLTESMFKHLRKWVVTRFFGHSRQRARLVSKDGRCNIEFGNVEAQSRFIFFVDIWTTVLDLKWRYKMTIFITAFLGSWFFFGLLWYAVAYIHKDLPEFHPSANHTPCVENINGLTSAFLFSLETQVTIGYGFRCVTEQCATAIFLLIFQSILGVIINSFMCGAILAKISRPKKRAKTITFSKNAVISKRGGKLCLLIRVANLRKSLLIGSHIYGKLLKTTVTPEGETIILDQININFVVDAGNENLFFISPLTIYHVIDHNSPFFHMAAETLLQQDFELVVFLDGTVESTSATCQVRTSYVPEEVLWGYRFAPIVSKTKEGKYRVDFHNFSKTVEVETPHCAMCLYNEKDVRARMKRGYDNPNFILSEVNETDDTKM

One may read the inhibition as the relative decrease from the control value, in per cent. Turning to `O=[N+]([O-])c1ccc(CN2CCOCCOCCN(Cc3ccc([N+](=O)[O-])cc3)CCOCC2)cc1`, the inhibition is 63.4% (ROMK block, at 1 µM); 78.2% (ROMK block, at 3 µM); 95.3% (at 10 µM).
With `O=[N+]([O-])c1ccc2nc(COCc3nc4ccc([N+](=O)[O-])cc4[nH]3)[nH]c2c1`, the inhibition runs as follows: (ROMK block, at 1 µM) 62.6%; (ROMK block, at 3 µM) 78.3%; (at 10 µM) 88.7%.
